Results published in PubChem BioAssay (NCI).
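Results reflect a 48-hour exposure of cells in 96-well plates to compound at five concentrations. GI50: concentration for 50% inhibition of growth. TGI marks complete inhibition of growth.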

Tests used:
Assay in all cases: NCI tumour cell line growth inhibition, 48 h
A498 renal = system: A498 renal
SF-539 CNS = system: SF-539 CNS
SNB-19 CNS = system: SNB-19 CNS
U251 CNS = system: U251 CNS
RXF 393 renal = system: RXF 393 renal
COLO 205 colon = system: COLO 205 colon
HOP-62 NSCLC = system: HOP-62 NSCLC
MOLT-4 leukemia = system: MOLT-4 leukemia
OVCAR-4 ovarian = system: OVCAR-4 ovarian
NCI-H522 lung = system: NCI-H522 lung
BT-549 breast = system: BT-549 breast
UACC-257 melanoma = system: UACC-257 melanoma
RPMI-8226 leukemia = system: RPMI-8226 leukemia
NCI/ADR-RES ovarian = system: NCI/ADR-RES ovarian
HCC-2998 colon = system: HCC-2998 colon
A549 NSCLC = system: A549 NSCLC
MCF7 breast = system: MCF7 breast
K-562 leukemia = system: K-562 leukemia
HT29 colon = system: HT29 colon
DU-145 prostate = system: DU-145 prostate
786-0 renal = system: 786-0 renal
NCI-H460 lung = system: NCI-H460 lung
SK-MEL-28 melanoma = system: SK-MEL-28 melanoma
HS 578T breast = system: HS 578T breast
PC-3 prostate = system: PC-3 prostate
M14 melanoma = system: M14 melanoma
SW-620 colon = system: SW-620 colon
T-47D breast = system: T-47D breast
OVCAR-3 ovarian = system: OVCAR-3 ovarian
ACHN renal = system: ACHN renal
OVCAR-8 ovarian = system: OVCAR-8 ovarian
EKVX NSCLC = system: EKVX NSCLC
HL-60(TB) leukemia = system: HL-60(TB) leukemia
UO-31 renal = system: UO-31 renal
HCT-15 colon = system: HCT-15 colon
SNB-75 CNS = system: SNB-75 CNS
SK-MEL-5 melanoma = system: SK-MEL-5 melanoma
SF-268 CNS = system: SF-268 CNS
IGROV1 ovarian = system: IGROV1 ovarian
MALME-3M melanoma = system: MALME-3M melanoma
MDA-MB-435 = system: MDA-MB-435
MDA-MB-231 breast = system: MDA-MB-231 breast
HOP-92 NSCLC = system: HOP-92 NSCLC
NCI-H226 lung = system: NCI-H226 lung
TK-10 renal = system: TK-10 renal
SN12C renal = system: SN12C renal
UACC-62 melanoma = system: UACC-62 melanoma
SR leukemia = system: SR leukemia
SF-295 CNS = system: SF-295 CNS
OVCAR-5 ovarian = system: OVCAR-5 ovarian
SK-OV-3 ovarian = system: SK-OV-3 ovarian
HCT-116 colon = system: HCT-116 colon
NCI-H23 lung = system: NCI-H23 lung
CCRF-CEM leukemia = system: CCRF-CEM leukemia
KM12 colon = system: KM12 colon
CAKI-1 renal = system: CAKI-1 renal

Work on `Cc1ccc(-c2nc(N)c(C#N)c3c2CCOc2c-3ccc3ccccc23)cc1` yielded a GI50 (A498 renal) of 79.4 nM, a TGI (A498 renal) of 609 nM and a GI50 (SF-539 CNS) of 457 nM. The TGI (SF-539 CNS) was 3480 nM, the GI50 (SNB-19 CNS) was 2080 nM and the TGI (SNB-19 CNS) was > 100000 nM. The GI50 (U251 CNS) was 222 nM, the TGI (U251 CNS) was 4250 nM and the GI50 (RXF 393 renal) was 266 nM. The TGI (RXF 393 renal) was 6290 nM, the GI50 (COLO 205 colon) was 418 nM and the TGI (COLO 205 colon) was > 100000 nM. It also gave a GI50 (HOP-62 NSCLC) of 313 nM, a TGI (HOP-62 NSCLC) of 7930 nM and a GI50 (MOLT-4 leukemia) of 420 nM. The TGI (MOLT-4 leukemia) was > 100000 nM, the GI50 (OVCAR-4 ovarian) was 16300 nM and the TGI (OVCAR-4 ovarian) was > 79500 nM. The GI50 (NCI-H522 lung) was 507 nM, the TGI (NCI-H522 lung) was > 100000 nM and the GI50 (BT-549 breast) was 3850 nM. The TGI (BT-549 breast) was 54000 nM, the GI50 (UACC-257 melanoma) was 474 nM and the TGI (UACC-257 melanoma) was > 100000 nM. The GI50 (RPMI-8226 leukemia) was 290 nM, the TGI (RPMI-8226 leukemia) was 2260 nM and the GI50 (NCI/ADR-RES ovarian) was 331 nM. For the same molecule, the TGI (NCI/ADR-RES ovarian) was 31500 nM, the GI50 (HCC-2998 colon) was 142 nM and the GI50 (A549 NSCLC) was 1200 nM. For the same molecule, the TGI (A549 NSCLC) was 22900 nM, the GI50 (MCF7 breast) was 284 nM and the TGI (MCF7 breast) was > 34400 nM. The GI50 (K-562 leukemia) was 61.4 nM, the TGI (K-562 leukemia) was > 40800 nM and the GI50 (HT29 colon) was 387 nM. The TGI (HT29 colon) was 54100 nM, the GI50 (DU-145 prostate) was 2040 nM and the TGI (DU-145 prostate) was 17200 nM. The GI50 (786-0 renal) was 363 nM, the TGI (786-0 renal) was 12700 nM and the GI50 (NCI-H460 lung) was 332 nM. The TGI (NCI-H460 lung) was > 46400 nM, the GI50 (SK-MEL-28 melanoma) was 2480 nM and the TGI (SK-MEL-28 melanoma) was > 100000 nM. For the same molecule, the GI50 (HS 578T breast) was 227 nM, the TGI (HS 578T breast) was 1510 nM and the GI50 (PC-3 prostate) was 186 nM. The TGI (PC-3 prostate) was 7510 nM, the GI50 (M14 melanoma) was 377 nM and the TGI (M14 melanoma) was > 22900 nM. The GI50 (SW-620 colon) was 1760 nM, the TGI (SW-620 colon) was > 93400 nM and the GI50 (T-47D breast) was 954 nM. The TGI (T-47D breast) was 45900 nM, the GI50 (OVCAR-3 ovarian) was 69 nM and the TGI (OVCAR-3 ovarian) was 1860 nM. The GI50 (ACHN renal) was 847 nM, the TGI (ACHN renal) was > 36100 nM and the GI50 (OVCAR-8 ovarian) was 2280 nM. It also gave a TGI (OVCAR-8 ovarian) of 27800 nM, a GI50 (EKVX NSCLC) of 3120 nM and a GI50 (HL-60(TB) leukemia) of 89.1 nM. The TGI (HL-60(TB) leukemia) was 916 nM, the GI50 (UO-31 renal) was 4140 nM and the TGI (UO-31 renal) was > 100000 nM. The GI50 (HCT-15 colon) was 54.3 nM, the GI50 (SNB-75 CNS) was 5020 nM and the TGI (SNB-75 CNS) was > 100000 nM. It also gave a GI50 (SK-MEL-5 melanoma) of 81.9 nM, a TGI (SK-MEL-5 melanoma) of 1140 nM and a GI50 (SF-268 CNS) of 356 nM. The TGI (SF-268 CNS) was 31600 nM, the GI50 (IGROV1 ovarian) was 359 nM and the TGI (IGROV1 ovarian) was > 100000 nM. The GI50 (MALME-3M melanoma) was 77.9 nM, the TGI (MALME-3M melanoma) was 7890 nM and the GI50 (MDA-MB-435) was 30.9 nM. It also gave a TGI (MDA-MB-435) of 459 nM, a GI50 (MDA-MB-231 breast) of 70 nM and a TGI (MDA-MB-231 breast) of 626 nM. For the same molecule, the GI50 (HOP-92 NSCLC) was 334 nM, the TGI (HOP-92 NSCLC) was 7440 nM and the GI50 (NCI-H226 lung) was > 100000 nM. For the same molecule, the TGI (NCI-H226 lung) was > 100000 nM, the GI50 (TK-10 renal) was 469 nM and the TGI (TK-10 renal) was 13600 nM. It also gave a GI50 (SN12C renal) of 12300 nM, a TGI (SN12C renal) of 53900 nM and a GI50 (UACC-62 melanoma) of 935 nM. The TGI (UACC-62 melanoma) was > 100000 nM, the GI50 (SR leukemia) was 88.2 nM and the TGI (SR leukemia) was > 100000 nM. It also gave a GI50 (SF-295 CNS) of 144 nM, a TGI (SF-295 CNS) of 1870 nM and a GI50 (OVCAR-5 ovarian) of 4740 nM. For the same molecule, the TGI (OVCAR-5 ovarian) was > 100000 nM, the GI50 (SK-OV-3 ovarian) was 3420 nM and the GI50 (HCT-116 colon) was 210 nM. It also gave a GI50 (NCI-H23 lung) of 521 nM, a TGI (NCI-H23 lung) of 66700 nM and a GI50 (CCRF-CEM leukemia) of 224 nM. For the same molecule, the TGI (CCRF-CEM leukemia) was 1360 nM, the GI50 (KM12 colon) was 203 nM and the TGI (KM12 colon) was 48600 nM. For the same molecule, the GI50 (CAKI-1 renal) was 171 nM and the TGI (CAKI-1 renal) was 16900 nM.
